Data reported in patent US20070219214A1, “Dual NK2/NK3-antagonists, pharmaceutical compositions comprising them, and processes for their preparation” (Solvay pharmaceuticals GmbH, priority 2006, published 2007).
Where two headings read alike, the source gives them in different places.

Key:
[1] = molecular target: T1, NK3-receptor (Cavia porcellus, UniProt P30098); assay: NK-3-receptor-antagonistic effectiveness in vivo, senktide-induced hypertension in guinea pigs; settings: guinea pig; for ID50 (iv), inhibition of blood pressure / ID50 (po), inhibition of blood pressure: senktide 0.4 μg/kg i.v.; for ID50 (iv), inhibition of blood pressure: intravenous administration; for ID50 (po), inhibition of blood pressure: oral administration
T1 construct: from tissue; host or cells: whole animal (Dunkin Hartley guinea pigs), in vivo
T1 sequence (P30098 1-440): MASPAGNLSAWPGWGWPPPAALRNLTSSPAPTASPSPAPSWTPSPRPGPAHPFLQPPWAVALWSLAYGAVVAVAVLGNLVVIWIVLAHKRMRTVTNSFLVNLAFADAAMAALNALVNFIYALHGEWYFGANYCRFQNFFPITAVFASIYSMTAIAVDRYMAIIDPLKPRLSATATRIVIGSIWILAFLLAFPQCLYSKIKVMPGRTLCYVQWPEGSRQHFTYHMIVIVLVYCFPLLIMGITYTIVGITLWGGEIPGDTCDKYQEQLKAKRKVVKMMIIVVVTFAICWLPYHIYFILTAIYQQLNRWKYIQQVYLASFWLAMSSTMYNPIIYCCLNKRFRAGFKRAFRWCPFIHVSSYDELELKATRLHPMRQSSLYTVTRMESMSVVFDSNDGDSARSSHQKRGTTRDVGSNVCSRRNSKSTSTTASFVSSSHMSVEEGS
Experimental: 9. Determination of the NK-3-Receptor-Antagonistic Effectiveness of the Test Substances In Vivo (Reduction of Blood Pressure in Guinea-Pigs with Senktide-Induced Hypertension)
NK3 agonists increase the blood pressure in guinea pigs. The senktide-induced hypertension can be antagonized by administering compounds with NK3-antagonistic properties. Measuring the level of hypertension is indicative of the degree of activity of the test compounds. The effect of the tested compound is assessed in the same experiment to exclude an additional hypertensional effect.
Male Dunkin Hartley guinea pigs with a body weight between 450 and 550 g were anesthetized with Ketamin (200 mg/kg i.m.; Aescoket 10%) and the left carotid artery and left jugular vein were cannulated for blood pressure measurement and drug application, respectively. The animals were allowed to breathe spontaneously. Blood pressure was measured with a strain gauge transducer connected to a computer via an amplifier.
For oral administration, vehicle (1% methylcellulose) or test compound was administered in a dose volume of 5 ml/kg. Forty five minutes thereafter, anesthesia was induced and the carotid artery and jugular vein were cannulated.
For intravenous administration, the test compounds were dissolved in 40% hydroxypropyl-β-cyclodextrine (HPCD) containing 10% DMSO, diluted with saline and administered intravenously in cumulative dose ranges. A vehicle group of animals received the corresponding HPCD/DMSO solutions instead of the test compound. For oral administration, the test compound was suspended in 1% methylcellulose. A vehicle group of animals received the corresponding […] of the test compound.

[2] = molecular target: T2, NK1-receptor (Cavia porcellus, UniProt P30547); assay: NK1-receptor-antagonistic effectiveness in vivo, NKA-induced early hypotension in anaesthetised guinea pigs; settings: guinea pig; for ED50 iv after 1 min (cumulative), NK1 (early hypotension) / ED50 AUC1-180 min oral, NK1 (early hypotension): NKA 200 pmol/animal i.v.; for ED50 iv after 1 min (cumulative), NK1 (early hypotension): intravenous administration
T2 construct: from tissue; host or cells: whole animal (Pirbright-White guinea pigs), in vivo
From the text: 10. Determination of the NK1- and NK2-Receptor-Antagonistic Effectiveness of the Test Substances In Vivo
The NK1- and NK2-antagonistic activities of the test substances were investigated in anaesthetised guinea pigs in each case after intravenous (=i.v.) and oral (=p.o.) administration in vivo. With the present test model it is possible to detect both NK2-antagonistic effects in three different organ systems (respiratory tracts, colon and circulation) and NK1-antagonistic effects (rapid drop in blood pressure) in an animal simultaneously.
Pirbright-White guinea pigs of a body weight of 500-700 g were anaesthetised with ketamine/xylazine (67/13 mg/kg subcutaneously, initial dose, further doses administered as required). The animals were provided with an intravenous catheter in order to administer the substance and an intra-arterial catheter to measure the blood pressure. The animals were artificially ventilated via a tracheal cannula and the respiratory pressure was recorded by means of a pressure transducer. A balloon was introduced into the distal colon of the animals for manometric recording of colon motility by means of a pressure transducer. Blood pressure, heart rate, respiratory pressure and colonic pressure were measured continuously for each animal and plotted on a recorder and by means of a digital data-processing system. […] The second phase of delayed hypotension (=phase of maximum hypotension after 2-5 min.) on the other hand is mediated via NK2-receptors, since they can be blocked by specific NK2-receptor antagonists.
These ED50 values obtained from cumulative dose effect curves are plotted in Table 13.

[3] = molecular target: T3, human NK3 receptor (Homo sapiens, UniProt P29371); assay: Binding potency of the test substances to NK3-receptors in vitro ([3H]-SR 142801 displacement); parameters: expressed in transfected cells; host or cells: CHO cells (membrane preparation); settings: human NK3-receptor in CHO cell membranes, [3H]-SR 142801 (osanetant), average of at least three measurements; for Ki: read-out: pKi, binding potency to NK3-receptors (converted)
T3 sequence (P29371 1-465): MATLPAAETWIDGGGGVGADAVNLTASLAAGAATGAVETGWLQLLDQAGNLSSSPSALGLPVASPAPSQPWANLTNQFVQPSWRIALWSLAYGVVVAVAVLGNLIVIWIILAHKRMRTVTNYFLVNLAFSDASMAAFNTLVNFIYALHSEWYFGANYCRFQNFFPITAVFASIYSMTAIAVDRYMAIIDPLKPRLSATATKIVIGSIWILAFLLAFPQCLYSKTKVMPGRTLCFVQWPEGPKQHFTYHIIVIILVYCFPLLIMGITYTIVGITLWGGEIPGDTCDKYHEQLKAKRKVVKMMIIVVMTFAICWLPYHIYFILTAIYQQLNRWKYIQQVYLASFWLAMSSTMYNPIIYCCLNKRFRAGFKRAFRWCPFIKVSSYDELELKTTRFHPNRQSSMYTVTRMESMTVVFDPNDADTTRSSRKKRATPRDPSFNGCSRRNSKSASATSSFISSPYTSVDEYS
In short: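 [3H]-osanetant displacement on membranes from CHO cells stably expressing the human receptor, with bound ligand separated by filtration and counted by scintillation. Nonspecific binding defined with 1 μmol/l unlabeled osanetant. IC50 converted to Ki by Cheng-Prusoff and reported as pKi, averaged over measurements.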

[4] = iv, read-out: ID50 (iv), inhibition of blood pressure
[5] = iv, read-out: ED50 iv after 1 min (cumulative), NK1 (early hypotension)

T2 sequence (P30547 whole entry): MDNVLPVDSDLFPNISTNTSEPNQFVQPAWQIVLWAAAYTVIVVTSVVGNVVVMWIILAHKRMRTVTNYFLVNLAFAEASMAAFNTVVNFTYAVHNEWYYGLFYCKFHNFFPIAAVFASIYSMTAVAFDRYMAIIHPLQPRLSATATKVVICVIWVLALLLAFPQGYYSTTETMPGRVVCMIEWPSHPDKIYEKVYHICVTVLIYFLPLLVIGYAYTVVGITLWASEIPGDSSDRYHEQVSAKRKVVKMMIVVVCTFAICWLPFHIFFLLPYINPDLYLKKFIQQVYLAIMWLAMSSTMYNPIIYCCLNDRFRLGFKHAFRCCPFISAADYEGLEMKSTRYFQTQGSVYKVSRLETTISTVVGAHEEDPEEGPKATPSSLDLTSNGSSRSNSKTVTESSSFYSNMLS

| SMILES | ED50 [1, 4] [mg/kg] | ED50 [2, 5] [µmol/kg] | Ki [3] [nM] | ED50 iv after 1 min (cumulative), NK1 (early hypotension) [2] [µmol/kg] | pKi, binding potency to NK3-receptors [3] | ID50 (iv), inhibition of blood pressure [1] [mg/kg] | ID50 (po), inhibition of blood pressure [1] [mg/kg] | other results |
| --- | --- | --- | --- | --- | --- | --- | --- | --- |
| CN(C)C(=O)C1(N2CCCCC2)CCN(CC[C@H](CN(C)C(=O)c2ccc(O)cc2)c2ccc(Cl)c(Cl)c2)CC1 [compound 6, 1′-{(3S)-3-(3,4-dichlorophenyl)-4-[(4-hydroxybenzoyl)-(methyl)amino]butyl}-N,N-dimethyl-1,4′-bipiperidine-4′-carboxamide] | 0.157 | > 1.46 | 2 |  |  |  |  |  |
| CN(C)C(=O)C1(N2CCCCC2)CCN(CC[C@H](CN(C)C(=O)C2CCCCC2)c2ccc(Cl)c(Cl)c2)CC1 [compound 3] |  |  |  | >1.462 | 8.2 |  |  |  |
| CN(C)C(=O)C1(N2CCCCC2)CCN(CC[C@H](CN(C)C(=O)c2ccccc2)c2ccc(Cl)c(Cl)c2)CC1 [compound 1] | 0.256 | > 0.46 | 2.51 |  |  |  |  | ED50 ([1]; po, read-out: ID50 (po), inhibition of blood pressure): 6.38 mg/kg; ED50 ([2]; read-out: ED50 AUC1-180 min oral, NK1 (early hypotension)): > 3.2 µmol/kg |
| CN(C)C(=O)C1(N2CCCCC2)CCN(CC[C@H](CN(C)C(=O)c2cc(F)ccc2F)c2ccc(Cl)c(Cl)c2)CC1 [compound 15] |  |  |  | >1.462 |  | 0.3732 |  |  |
| CN(C)C(=O)C1(N2CCCCC2)CCN(CC[C@H](CN(C)C(=O)c2ccc(F)c(F)c2)c2ccc(Cl)c(Cl)c2)CC1 [compound 14] |  |  |  | >1.462 |  | 0.5168 | 6.811 |  |
| CN(C)C(=O)C1(N2CCCCC2)CCN(CCC(CN(C)C(=O)c2ccc(Cl)nc2)c2ccc(Cl)c(Cl)c2)CC1 (stereo not drawn) [compound 18] | 1.01 | > 1.46 | 5.01 |  |  |  |  |  |
| CN(C)C(=O)C1(N2CCCCC2)CCN(CCC(CN(C)C(=O)c2cccnc2)c2ccc(Cl)c(Cl)c2)CC1 (stereo not drawn) [compound 19] | 0.39 | > 1.46 | 31.6 |  |  |  |  |  |
| CN(C)C(=O)C1(N2CCCCC2)CCN(CC[C@H](CN(C)C(=O)c2ccc(F)cc2)c2ccc(Cl)c(Cl)c2)CC1 [compound 4] |  |  |  | >1.462 | 8.2 | 0.7564 | 2.3313 | ED50 AUC1-180 min oral, NK1 (early hypotension) ([2]; oral administration): >10 µmol/kg |
| CN(C)C(=O)C1(N2CCCCC2)CCN(CC[C@H](CN(C)C(=O)c2cc(C#N)c3ccccc3c2)c2ccc(Cl)c(Cl)c2)CC1 [compound 11] |  |  |  | 0.433 | 7.9 | 1.0554 | 10 | ED50 AUC1-180 min oral, NK1 (early hypotension) ([2]; oral administration): 23.027 µmol/kg; NK-1-receptor-antagonistic activity on the early hypotension, in words ([2]; cumulative administration i.v., 1 min after administration): marked NK-1-receptor-antagonistic activity; oral activity as NK1 receptor antagonist, in words ([2]; oral administration): active as NK1 receptor antagonists |
| CN(C)C(=O)C1(N2CCCCC2)CCN(CC[C@H](CN(C)C(=O)c2ccc(F)cc2F)c2ccc(Cl)c(Cl)c2)CC1 [compound 13] |  |  |  |  | 7.4 | 0.5013 | <10 |  |
